Laboratory results from PMC3780361 (Bioorganic & medicinal chemistry, 2013).
Values after ≈ are worked out from the molar mass of the structure shown.

Experiments:
[1] = physchem; details: pH 7.4
[2] = test system: M. tb H37Rv; details: secondary-linked 1 vs tertiary-linked 2; cited from earlier work
[3] = test system: M. tb H37Rv; assay: M. tb MIC determination by microbroth dilution; type: cell-based; details: Mycobacterium tuberculosis, 168 h, read-out: M. tb MIC
[4] = molecular target: T1, recombinant human sEH (Homo sapiens, UniProt P34913); assay: Human soluble epoxide hydrolase assay; type: biochemical
T1 sequence (P34913 1-555): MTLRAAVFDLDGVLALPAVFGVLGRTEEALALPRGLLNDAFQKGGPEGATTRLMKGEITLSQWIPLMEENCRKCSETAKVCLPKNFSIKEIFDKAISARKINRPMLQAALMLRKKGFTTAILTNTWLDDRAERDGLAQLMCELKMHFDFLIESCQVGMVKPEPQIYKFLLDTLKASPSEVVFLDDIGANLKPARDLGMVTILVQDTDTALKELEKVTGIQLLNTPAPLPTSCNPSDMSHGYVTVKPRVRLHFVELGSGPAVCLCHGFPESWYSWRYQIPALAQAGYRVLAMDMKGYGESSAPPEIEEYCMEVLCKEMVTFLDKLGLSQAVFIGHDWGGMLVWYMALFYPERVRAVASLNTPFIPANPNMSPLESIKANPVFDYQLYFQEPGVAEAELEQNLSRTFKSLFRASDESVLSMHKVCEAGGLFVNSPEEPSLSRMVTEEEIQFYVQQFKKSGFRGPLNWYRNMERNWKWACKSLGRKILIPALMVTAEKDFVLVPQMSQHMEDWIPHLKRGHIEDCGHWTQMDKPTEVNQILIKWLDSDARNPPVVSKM

[5] = in vitro; details: monkey; for IC50 at 72 h: Cytotoxicity IC50
[6] = Permeability determination; details: PAMPA, pH 7.4
[7] = Cytotoxicity determination; details: monkey, Cytotoxicity IC50, VERO cell line, MTT

CC(C)c1nnc(NC(=O)NC23CC4CC(CC(C4)C2)C3)o1 [Compound 37, 1-(1-adamantyl)-3-(5-isopropyl-1,3,4-oxadiazol-2-yl)urea]
solubility at 18 h [1]: ~10 µg/mL (≈ 32.9 µM)

O=C(Nc1ccc(F)c(F)c1F)NC1C2CC3CC(C2)CC1C3 (stereo not drawn) [Compound 1]
Fold more potent than 2 (anti-TB activity) [2]: 40 fold

Nc1ccc(S(=O)(=O)c2ccc(NC(=O)NC34CC5CC(CC(C5)C3)C4)cc2)cc1 [Compound 13, 1-(1-adamantyl)-3-(4-((4-aminophenyl)sulfonyl)phenyl)urea]
MIC [3]: 6.25 µg/mL (≈ 14.7 µM)
IC50 [4]: 700 pM
solubility at 18 h [1]: 0.9 ± 0.1 µg/mL (≈ 2.11 µM)
selectivity ratio at 72 h [5]: 23
IC50 at 72 h [5]: > 100 µg/mL

Cc1nnc(NC(=O)NC23CC4CC(CC(C4)C2)C3)o1 [Compound 36, 1-(1-adamantyl)-3-(5-methyl-1,3,4-oxadiazol-2-yl)urea]
solubility at 18 h [1]: ~10 µg/mL (≈ 36.2 µM)

CCCSc1ccc2nc(NC(=O)OC)[nH]c2c1 [albendazole]
Papp at 0.5 hr, 50 µM [6]: ~441 ×10⁻⁶ cm/s

Cc1cc(NC(=O)NC23CC4CC(CC(C4)C2)C3)no1 [Compound 23, 1-(1-adamantyl)-3-(5-methylisoxazol-3-yl)urea]
solubility at 18 h [1]: ~25 µg/mL (≈ 90.8 µM)

CCn1nc(NC(=O)NC2C3CC4CC(C3)CC2C4)cc1C (stereo not drawn) [Compound 52, 1-(2-adamantyl)-3-(1-ethyl-5-methylpyrazol-3-yl)urea]
IC50 at 72 h [7]: > 100 µg/mL

O=C(Nc1nnc(C2CC2)o1)NC1C2CC3CC(C2)CC1C3 (stereo not drawn) [Compound 50, 1-(2-adamantyl)-3-(5-cyclopropyl-1,3,4-oxadiazol-2-yl)urea]
IC50 at 72 h [7]: > 100 µg/mL

Cc1cc(NC(=O)NC2C3CC4CC(C3)CC2C4)no1 (stereo not drawn) [Compound 47, 1-(2-adamantyl)-3-(5-methylisoxazol-3-yl)urea]
solubility at 18 h [1]: ~25 µg/mL (≈ 90.8 µM)
selectivity ratio at 72 h [5]: > 8
IC50 at 72 h [5]: > 48 µg/mL
